# Experimental data published in EP0567613B1, “COMPOSITIONS FOR THERAPY AND PREVENTION OF CANCER” (The Government of the United States of America, as …, priority 1991, dated 1993).
# Like-named read-outs stand apart in the source and are kept apart here.
# Legend:
# [1] = tested on: premalignant 4C8 and 10T1/2 cells; assay: Prevention of 5-AzadC-induced malignant conversion in culture; type: cell-based; settings: NaPA 0.8-1.6 mg/ml, cells exposed to 5-AzadC
# Excerpt: It is known that the treatment of premalignant 4C8 and 10T1/2 cells with carcinogens such as 5-AzadC produces malignant conversion of the respective cells. When 4C8 [Remold: et al., Cancer Research, 51:1-7 (1990)] and 10T1/2 cells were exposed to 5-AzadC, malignant conversion was evident in two days and two weeks, respectively.
# [2] = tested on: Astrocytoma U87; assay: Tumor cell growth / proliferation; type: cell-based
# [3] = tested on: 10T1/2 cells; assay: Neoplastic foci formation in culture; settings: 800-1600 µg/ml for seven weeks
# Excerpt: […] The cells were then subcultured in the absence of the nucleoside analog for an additional seven weeks. […] For the tumorigenicity assay, 4-5 week-old female athymic nude mice were inoculated s.c. with 1 x 10^6 cells and observed for tumor growth at the site of injection.
# [4] = tested on: 4C8a10 cells; assay: Malignant phenotype in culture / growth on matrigel; type: cell-based
# Description: The experimental model involved nonmalignant 4C8a10 cells (revertants of Haras-transformed NIH3T3 fibroblasts). […]
# ^b Cells were plated on top of matrigel (reconstituted basement membrane) and observed for malignant growth pattern, i.e., active replication, development of characteristic processes, and invasion.
# [5] = tested on: NIH 3T3 cells carrying activated EJras oncogene; assay: Prevention of neoplastic transformation, oncogene transfer (ras-transformed foci); type: cell-based; settings: treatment initiated 24-48 hr after oncogene transfer, scored 14-21 days later
# Excerpt: Left: Untreated control cells at about 3 weeks after DNA transfer. Middle: control of cells with as oncogenes, showing the rate of spontaneous transformation. Right: Oncogene-transfected cells, […] with NaPA.
# The effect was reversible upon cessation of treatment. In treated humans, however, the fate of the premalignant cells may be substantially different due to involvement of humoral and cellular immunity (see below).
# [6] = tested on: Astrocytoma U343; assay: Tumor cell growth / proliferation; type: cell-based
# [7] = tested on: Prostatic Ca LaNCoP; assay: Tumor cell growth / proliferation; type: cell-based; settings: read-out: % Inhibition by NaPA 0.8 mg/ml
# [8] = tested on: intracellular glutathione; assay: Induction of intracellular glutathione; type: cell-based; settings: normal or tumor cells, depending on growth conditions
# Excerpt: It is known that intracellular glutathione plays a major role in detoxification and repair of cellular injury by chemical and physical carcinogens. […] Nontoxic agents that can induce glutathione are highly desirable since these are likely to protect cells from damage by a variety of chemical carcinogens and ionizing radiation.
# [9] = tested on: Prostatic PC3 Cells; assay: Tumorigenicity of pretreated cells in nude mice; type: in vivo, athymic nude mice; settings: cells pretreated 1 week at 0.8 mg/ml, 8 weeks later
# Excerpt: PC3 cells were pretreated for 1 week in culture and then injected (2 x 10^5 cells/animal) s.c. into 4-5 week-old female athymic nude mice. […] The data in Table 4 are a summary of two independent experiments.
# [10] = tested on: primary human skin FS4 fibroblasts; assay: Growth of normal cells; type: cell-based; settings: Fibroblast, read-out: concentration needed to cause a significant inhibition of growth
# [11] = tested on: Kaposi's Sarcoma KS; assay: Tumor cell growth / proliferation; type: cell-based; settings: read-out: % Inhibition by NaPA 0.8 mg/ml
# [12] = tested on: PC3 cells; assay: Growth on matrigel / in vitro invasion; type: cell-based, human; settings: 800 µg/ml for 4 days, replated on matrigel, 8 days after plating
# Description: Pictures of controls, taken after 1 and 8 days (A and B, respectively), show the characteristic growth pattern of untreated cells, i.e., formation of net-like structures composed of actively replicating cells, which eventually degraded the matrigel and formed monolayers on the plastic surface beneath.
# Results scored 6-24 hours later.
# It is known that PC3 cells are invasive in vitro and metastatic in recipient athymic mice. [Albini, A. et al. A rapid in vitro assay for quantitating the invasive potential of tumor cells. Cancer Res. 47:3239-3245 (1987)]. The invasiveness of PC3 cells which is indicative of their malignant phenotype can be assessed by their ability to degrade and cross tissue barriers such as matrigel, a reconstituted basement membrane. […] In Fig. 7, pictures of controls taken after 1 and 8 days, A and B, respectively, shown the characteristic growth pattern of untreated cells, i.e., formation of net-like structures composed of actively replicating cells which eventually degraded the matrigel and formed monolayers on the plastic surface beneath. […] The formation of small noninvasive colonies on top of the matrigel is indicative of loss of malignant properties following treatment. Results of the in vitro invasion assays correlate highly with the biological behavior of cells in vivo.
# [13] = Cytotoxicity in tissue culture; type: cell-based; settings: tissue culture; read-out: concentration at which cytotoxicity was observed
# Excerpt: (§1) A differential effect was seen also in ras-transformed fibrosarcoma V7T, when compared to the parental non-tumorigenic N1H3T3 cells.
# (§2) The concentration range found to selectively suppress malignant growth can be readily obtained in the clinical setting without causing significant side effects.
# [14] = tested on: the malignant or the normal cells; assay: Cytotoxicity in tissue culture; type: cell-based; settings: growth-inhibitory concentrations
# Excerpt: as §1, §2
# [15] = tested on: Fibrosarcoma RS485; assay: Tumor cell growth / proliferation; type: cell-based; settings: read-out: % Inhibition by NaPA 0.8 mg/ml
# Excerpt: (§3) • # 7-10 For effective responses, the tumors may require much higher drug concentrations if used alone.
# [16] = tested on: Squamous Cancer of Head & Neck A431; assay: Tumor cell growth / proliferation; type: cell-based; settings: Homo sapiens
# Excerpt: as §3
# [17] = tested on: Breast Cancer MCF-7; assay: Tumor cell growth / proliferation; type: cell-based; settings: Homo sapiens
# Excerpt: as §3
# [18] = tested on: DU145; assay: Tumor cell growth / proliferation; type: cell-based; settings: Homo sapiens
# Description: (§4) Studies of depth were performed with two androgenindependent human prostate adenocarcinoma cell lines, PC3 and DU145, established from bone and brain metastases, respectively.
# [19] = tested on: Prostate Adenocarcinoma PC3; assay: Tumor cell growth / proliferation; type: cell-based; settings: Homo sapiens
# Description: as §4
smiles,measurement,setting,value
"O=C([O-])Cc1ccccc1.[Na+] [NaPA, sodium phenylacetate]","appearance of the malignant phenotype (cell morphology, contact inhibition, anchorage dependent growth)",[1],prevented the appearance of the malignant phenotype
same,IC50,"[2]; Homo sapiens, U-87 MG, read-out: concentration causing about 50% inhibition of growth",400 to 800 µg/mL
same,inhibition at 800 µg/mL,"[2]; read-out: % Inhibition by NaPA 0.8 mg/ml, 0.8 mg/ml",≥ 50%
same,neoplastic foci in vitro and tumors in recipient mice,[3],forming neither neoplastic foci in vitro nor tumors in recipient mice
same,Growth on matrigel,[4]; NaPA 1.5 mg/ml,-
same,development of the malignant phenotype,[4]; in 5-AzadC treated cultures,prevented the development of the malignant phenotype
same,formation of ras-transformed foci,[5],dose-dependent reduction in the formation of ras-transformed foci
same,IC50,"[6]; astrocytoma 343, read-out: concentration causing about 50% inhibition of growth",400 to 800 µg/mL
same,inhibition at 800 µg/mL,"[6]; read-out: % Inhibition by NaPA 0.8 mg/ml, U343, 0.8 mg/ml",≥ 50%
same,inhibition at 800 µg/mL,[7],> 50%
same,induction of the activity of intracellular glutathione,[8],2-10 fold
same,Incidence,[9]; 2 x 10^5 cells/animal s.c.,1/7
same,Diameter,[9],2 mm ± S.D.
same,Weight,[9],50 mg
same,minimal effective concentration,[10],2000 to 4000 µg/mL
same,inhibition at 800 µg/mL,[11],≤ 40%
same,degradation of the matrigel barrier,[12],failed to degrade the matrigel barrier
same,MCC,[13],> 3000 µg/mL
same,toxicity of the treatment to cells,[14],not toxic to either the malignant or the normal cells
same,inhibition at 800 µg/mL,[15],≤ 30%
same,inhibition at 800 µg/mL,"[16]; A-431, read-out: % Inhibition by NaPA 0.8 mg/ml, 0.8 mg/ml",< 30%
same,IC50,"[16]; A-431, read-out: concentration causing about 50% inhibition of growth",1000 to 1500 µg/mL
same,inhibition at 800 µg/mL,"[17]; MCF7, read-out: % Inhibition by NaPA 0.8 mg/ml, MCF-7, 0.8 mg/ml",≤ 30%
same,IC50,"[17]; MCF7, breast tumor MCS-7, read-out: concentration causing about 50% inhibition of growth",1000 to 1500 µg/mL
same,IC50,"[18]; DU-145, growth arrest, read-out: IC50",600 to 800 µg/mL
same,inhibition at 800 µg/mL,"[18]; DU-145, read-out: % Inhibition by NaPA 0.8 mg/ml, 0.8 mg/ml",≥ 50%
same,IC50,"[18]; DU-145, read-out: concentration causing about 50% inhibition of growth",400 to 800 µg/mL
same,IC50,[19],600 to 800 µg/mL
same,viability at 800 µg/mL,[19]; PC-3,> 95%
same,activity at 800 µg/mL,"[19]; PC-3, read-out: Growth",59.6%
same,IC50,"[19]; PC-3, read-out: concentration causing about 50% inhibition of growth",400 to 800 µg/mL
same,inhibition at 800 µg/mL,[19]; read-out: % Inhibition by NaPA 0.8 mg/ml,≥ 50%
